Results as given in US20220144826A1, “Heteroaromatic and Heterobicyclic Aromatic Derivatives for the Treatment of Ferroptosis-Related Disorders” (COLLABORATIVE MEDICINAL DEVELOPMENT, LLC, priority 2019, published 2022).

What follows are molecules tested on N27 rat dopaminergic neural cells (assay: MTT assay in N27 rat dopaminergic neural cells: inhibition of RSL3-induced cell death (ferroptosis)). Conditions: Rattus norvegicus, N27, 24 h, ferroptosis induced by 0.5 μM RSL3, 24 hours, viability by MTT.
Type: cell-based
Method: MTT Assay in N27 Rat Dopaminergic Neural Cells
N27 rat dopaminergic neural cells (Millipore, SCC048) were cultured in RPMI-1640 media (Wisent, 350-000) supplemented with 1×GlutaMAX (Gibco, 35050-061), 10% FBS (embryonic stem cell qualified; Wisent, 920-040), and 1× Penicillin-Streptomycin (Wisent, 450-201). Cells were grown in humidified tissue culture incubator at 37° C. with 5% CO2, for up to 10 passages. To evaluate the ability of test compounds to inhibit RSL3-induced cell death, N27 cells were seeded in clear 96-well tissue culture plates (Sarstedt, 83.3924) at a density of 15,000 cells/well. On the next day, the medium was changed to fresh complete RPMI-1640. Eight-point dilution series of test compounds were added to the cells. Then, ferroptosis was induced by addition of 0.5 μM RSL3 (vehicle-treated cells served as control). Ferrostatin-1 (Fer-1) was included in each assay as control inhibitor of ferroptosis. Plates were incubated for 24 hours at 37° C. in a tissue culture incubator, then cell viability was determined by MTT assay. Briefly, Thiazolyl Blue Tetrazolium Bromide [3-(4,5-dimethylthiazol-2-yl)-2,5-diphenyltetrazolium bromide or “MTT” ] (Sigma) stock solution (5 mg/mL in PBS, sterilized by filtration) was diluted 1:1 with complete growth medium, and added on the cells to a final concentration of 0.5 mg/mL. Cells were incubated with MTT for 4 hours at 37° C., protected from light, in a humidified, 5% CO2 atmosphere. Medium was then completely removed from the wells by gentle aspiration and converted MTT formazan crystals were dissolved in 150 μL of DMSO. Absorbance of converted dye was measured at 595 nm with background subtraction at 690 nm using the BioTek Cytation5 Microplate Reader. Blank reading (absorbance from wells containing media and vehicle only, no cells) was removed from all sample wells. Viability was calculated as a percentage of control cells (vehicle-treated cells were set as 100% viability). Dose-response curves were drawn and IC50 values were calculated using GraphPad Prism software, version 7.
Molecule CCCCC(O)c1nc2c(c(NC(C)(C)C)n1)NCCC2 (stereo not shown) [Compound A-00, 1-[4-(tert-butylamino)-5,6,7,8-tetrahydropyrido[3,2-d]pyrimidin-2-yl]pentan-1-ol] has an IC50 of 139 nM.
CCCCC(=O)c1nc2c(c(NC(C)(C)C)n1)NCCC2 [Compound A-06, 1-[4-(tert-butylamino)-5,6,7,8-tetrahydropyrido[3,2-d]pyrimidin-2-yl]pentan-1-one] showed an IC50 of 76 nM.
Work on OC(c1ccccc1)c1nc2c(c(NC3CCCC3)n1)NCCC2 (stereo not shown) [Compound A-10, [4-(cyclopentylamino)-5,6,7,8-tetrahydropyrido[3,2-d]pyrimidin-2-yl]-phenyl-methanol] yielded an IC50 of 71 nM.
With OC(c1ccc(F)cc1)c1nc2c(c(NC3CCCC3)n1)NCCC2 (stereo not shown) [Compound A-11, [4-(cyclopentylamino)-5,6,7,8-tetrahydropyrido[3,2-d]pyrimidin-2-yl]-(4-fluorophenyl)methanol] the IC50 was 36 nM.
Molecule CC#Cc1nc2c(c(NC3CCCC3)n1)NCCC2 [Compound A-12, N-cyclopentyl-2-prop-1-ynyl-5,6,7,8-tetrahydropyrido[3,2-d]pyrimidin-4-amine] has an IC50 of 109 nM.
For O=C(c1ccccc1)c1nc2c(c(NC3CCCC3)n1)NCCC2 [Compound A-16, [4-(cyclopentylamino)-5,6,7,8-tetrahydropyrido[3,2-d]pyrimidin-2-yl]-phenyl-methanone], the IC50 was 285 nM.
With O=C(c1ccc(F)cc1)c1nc2c(c(NC3CCCC3)n1)NCCC2 [Compound A-17, [4-(cyclopentylamino)-5,6,7,8-tetrahydropyrido[3,2-d]pyrimidin-2-yl]-(4-fluorophenyl)methanone] the IC50 was 123 nM.
For CCCCC(=O)c1nc2c(c(N3CCCC3)n1)NCCC2 [Compound A-18, 1-(4-pyrrolidin-1-yl-5,6,7,8-tetrahydropyrido[3,2-d]pyrimidin-2-yl)pentan-1-one], the IC50 was 217 nM.
With CCCC#Cc1nc2c(c(NC3CCCC3)n1)NCCC2 [Compound A-27, N-cyclopentyl-2-pent-1-ynyl-5,6,7,8-tetrahydropyrido[3,2-d]pyrimidin-4-amine] the IC50 was 34 nM.
c1ccc(-c2cn(-c3nc4c(c(NC5CCCC5)n3)NCCC4)nn2)cc1 [Compound A-31, N-cyclopentyl-2-(4-phenyltriazol-1-yl)-5,6,7,8-tetrahydropyrido[3,2-d]pyrimidin-4-amine] gave an IC50 of 21 nM.
Cc1ccc(-c2nc3c(c(NC4CCCC4)n2)NCCC3)cc1 [Compound A-32, N-cyclopentyl-2-(p-tolyl)-5,6,7,8-tetrahydropyrido[3,2-d]pyrimidin-4-amine] gave an IC50 of 6 nM.
Work on c1cc(-c2nc3c(c(NC4CCCC4)n2)NCCC3)ccn1 [Compound A-34, N-cyclopentyl-2-(4-pyridyl)-5,6,7,8-tetrahydropyrido[3,2-d]pyrimidin-4-amine] yielded an IC50 of 57 nM.
Molecule CC(C)(C)C(=O)c1nc2c(c(NC3CCCC3)n1)NCCC2 [Compound A-35, 1-[4-(cyclopentylamino)-5,6,7,8-tetrahydropyrido[3,2-d]pyrimidin-2-yl]-2,2-dimethyl-propan-1-one] has an IC50 of 248 nM.
Molecule Cc1ccc(-c2ccc(NC(C)(C)C)c(NC3CCCC3)n2)cc1 [Compound A-98, N^3-tert-butyl-N^2-cyclopentyl-6-(p-tolyl)pyridine-2,3-diamine] has an IC50 of 7 nM.
In the case of CCCCC(=O)c1cc2c(c(-n3ccnc3)c1)NCCC2 [Compound B-006, 1-(8-imidazol-1-yl-1,2,3,4-tetrahydroquinolin-6-yl)pentan-1-one], the IC50 is reported as > 3000 nM.
For CCCCC(=O)c1cc2c(c(NC3CCCC3)c1)OCCC2 [Compound B-035, 1-[8-(cyclopentylamino)-3,4-dihydro-2H-1-benzopyran-6-yl]pentan-1-one], the IC50 was > 3000 nM.
Work on CCCCC(=O)c1cc(N)c2c(c1)CCCN2 [Compound B-059, 1-(8-amino-1,2,3,4-tetrahydroquinolin-6-yl)pentan-1-one] yielded an IC50 of 149 nM.
With CCCCC(=O)c1cc(N)c2c(c1)CCCN2S(=O)(=O)CC(C)C [Compound B-060] the IC50 was 4020 nM.
With CON(C)C(=O)c1ccc2c(c1)C=CC(C)(C)N2 [Compound B-065] the IC50 was > 3000 nM.
With CCCCC(=O)c1cc2c3c(c1)nc(C(F)(F)F)n3CCC2 [Compound B-099, 1-[2-(trifluoromethyl)-1,3-diazatricyclo[6.3.1.04,12]dodeca-2,4 (12),5,7-tetraen-6-yl]pentan-1-one] the IC50 was > 3000 nM.
Molecule CCCCC(=O)c1ccc2c(c1)C=CC(C)(C)N2 [Compound B-100, 1-(2,2-dimethyl-1,2-dihydroquinolin-6-yl)pentan-1-one] has an IC50 of 7440 nM.
In the case of CCOC(=O)c1cc2c(c(C(=O)C(F)(F)F)c1)NC(C)(C)C=C2 [Compound B-101, Ethyl 2,2-dimethyl-8-(2,2,2-trifluoroacetyl)-1,2-dihydroquinoline-6-carboxylate], the IC50 is reported as > 3000 nM.
CCCCC(=O)c1cc(F)c2c(c1)CCCN2 [Compound B-132] was tested, and the IC50 was > 3000 nM.
CCCCC(=O)c1cc(N)c2c(c1)CCCN2Cc1ccccc1 [Compound B-133] showed an IC50 of 2900 nM.
For CCOC(=O)c1cc2c(c(NC3CCCC3)c1)NC(=O)CC2 [Compound B-148], the IC50 was 1670 nM.
For CCCCC(=O)c1cc2c(c(N(S(=O)(=O)CC(C)C)S(=O)(=O)CC(C)C)c1)NCCC2 [Compound B-248, N-isobutylsulfonyl-2-methyl-N-(6-pentanoyl-1,2,3,4-tetrahydroquinolin-8-yl)propane-1-sulfonamide], the IC50 was > 3000 nM.
CCCCC(=O)c1cc2c(c(Nc3ccccn3)c1)NCCC2 [Compound B-249, 1-{8-[(pyridin-2-yl)amino]-1,2,3,4-tetrahydroquinolin-6-yl}pentan-1-one] was tested, and the IC50 was 343 nM.
With CCCCC(O)c1cc2c(c(Nc3ccccn3)c1)NCCC2 (stereo not shown) [Compound B-250, 1-[8-(2-pyridylamino)-1,2,3,4-tetrahydroquinolin-6-yl]pentan-1-ol] the IC50 was 139 nM.
Work on CCCCC(=O)c1cc2c(c(NS(=O)(=O)CC(C)C)c1)NCCC2 [Compound B-251, 2-methyl-N-(6-pentanoyl-1,2,3,4-tetrahydroquinolin-8-yl)propane-1-sulfonamide] yielded an IC50 of 9300 nM.
Work on CCOC(=O)c1cc(N)c2c(c1)CCC(C)(C)N2 [Compound B-256] yielded an IC50 of 3820 nM.
CCOC(=O)c1cc2c(c(NC3CCCC3)c1)NC(C)(C)CC2 [Compound B-273, Ethyl 8-cyclopentylamino-2,2-dimethyl-3,4-dihydro-1H-quinoline-6-carboxylate] showed an IC50 of 1040 nM.
CCCCCc1cc2c(c(Nc3ccccn3)c1)NCCC2 [Compound B-308] gave an IC50 of 18 nM.
CCCCOc1nc2c(c(NC3CCCC3)n1)NCCC2 [Compound B-323, 2-Butoxy-N-cyclopentyl-5,6,7,8-tetrahydropyrido[3,2-d]pyrimidin-4-amine] was tested, and the IC50 was 43 nM.
For CCCCCc1nc2c(c(NC3CCCC3)n1)NCCC2 [Compound B-349, N-Cyclopentyl-2-pentyl-5,6,7,8-tetrahydropyrido[3,2-d]pyrimidin-4-amine], the IC50 was 170 nM.
CCC/C=C/c1nc2c(c(NC3CCCC3)n1)NCCC2 [Compound B-388, N-cyclopentyl-2-[(E)-pent-1-enyl]-5,6,7,8-tetrahydropyrido [3,2-d]pyrimidin-4-amine] showed an IC50 of 40 nM.
CCCCC(OC)c1cc2c(c(Nc3ccccn3)c1)NCCC2 (stereo not shown) [Compound B-397, 6-(1-methoxypentyl)-N-(2-pyridyl)-1,2,3,4-tetrahydroquinolin-8-amine] gave an IC50 of 70 nM.
CCCCNc1nc2c(c(NC3CCCC3)n1)NCCC2 [Compound B-433, N2-Butyl-N4-cyclopentyl-5,6,7,8-tetrahydropyrido[3,2-d]pyrimidine-2,4-diamine] was tested, and the IC50 was 726 nM.
CCCCN(C)c1nc2c(c(NC3CCCC3)n1)NCCC2 [Compound B-434, N2-Butyl-N4-cyclopentyl-N2-methyl-5,6,7,8-tetrahydropyrido[3,2-d]pyrimidine-2,4-diamine] gave an IC50 of 397 nM.
With C1CNc2c(nc(C3CCCC3)nc2NC2CCCC2)C1 [Compound B-456, N,2-Dicyclopentyl-5,6,7,8-tetrahydropyrido[3,2-d]pyrimidin-4-amine] the IC50 was 153 nM.
COCCOc1nc2c(c(NC3CCCC3)n1)NCCC2 [Compound B-495, N-cyclopentyl-2-(2-methoxyethoxy)-5,6,7,8-tetrahydropyrido[3,2-d]pyrimidin-4-amine] gave an IC50 of 160 nM.
CCC/C=C/c1nc(NC2CCCC2)c2c(n1)SCC(=O)N2 [Compound B-600, 4-(cyclopentylamino)-2-[(1E)-pent-1-en-1-yl]-5H,6H,7H-pyrimido[4,5-b][1,4]thiazin-6-one] was tested, and the IC50 was ≥ 3000 nM.
With CCCCCc1nc(NC2CCCC2)c2c(n1)SCCN2 [Compound B-601, N-cyclopentyl-2-pentyl-5H,6H,7H-pyrimido[4,5-b][1,4]thiazin-4-amine] the IC50 was 3 nM.

Same assay, conditions: ferroptosis induced by 0.5 μM RSL3, 24 hours, viability by MTT
Work on CCCCCc1nc2c(c(NC3CCCC3)n1)NCCC2 [Compound A-63, N-cyclopentyl-2-pentyl-5,6,7,8-tetrahydropyrido[3,2-d]pyrimidin-4-amine] yielded an IC50 of 313 nM.
